Assays:
Type in all cases: in vivo
[1] = test system: barnyardgrass (Echinochloa crus-galli); experiment: Test A pre-/postemergence: barnyardgrass; settings: for Barnyardgrass plant response rating: Postemergence; for Plant response rating, Barnyardgrass: Preemergence
Outline: (§1)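 Injury was scored visually on a 0 (no effect) to 100 (complete control) scale versus untreated controls roughly ten days after treatment in the greenhouse. Compounds, formulated in surfactant-containing non-phytotoxic solvent, went on as soil-directed preemergence spray or postemergence to one- to two-leaf plants 2–10 cm tall.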

[2] = test system: crabgrass, large (large crabgrass, Digitaria sanguinalis); experiment: Test A pre-/postemergence: crabgrass, large; settings: for Crabgrass, Large plant response rating: Postemergence; for Plant response rating, Crabgrass, Large: Preemergence
Outline: as §1

[3] = test system: foxtail, giant (giant foxtail, Setaria faberii); experiment: Test A pre-/postemergence: foxtail, giant; settings: for Foxtail, Giant plant response rating: Postemergence; for Plant response rating, Foxtail, Giant: Preemergence
Outline: as §1

[4] = test system: morningglory (Ipomoea spp.); experiment: Test A pre-/postemergence: morningglory; settings: for Morningglory plant response rating: Postemergence; for Plant response rating, Morningglory: Preemergence
Outline: as §1

[5] = test system: pigweed (Amaranthus retroflexus); experiment: Test A pre-/postemergence: pigweed; settings: for Pigweed plant response rating: Postemergence; for Plant response rating, Pigweed: Preemergence
Outline: as §1

[6] = test system: velvetleaf (Abutilon theophrasti); experiment: Test A pre-/postemergence: velvetleaf; settings: for Velvetleaf plant response rating: Postemergence; for Plant response rating, Velvetleaf: Preemergence
Outline: as §1

[7] = test system: wheat (Triticum aestivum); experiment: Test A pre-/postemergence: wheat; settings: for Wheat plant response rating: Postemergence; for Plant response rating, Wheat: Preemergence
Outline: as §1

corn (Zea mays) = experiment: Test A pre-/postemergence: corn; settings: for Corn plant response rating: Postemergence; for Plant response rating, Corn: Preemergence
Outline: as §1

rice (Oryza sativa) = experiment: Test C flooded paddy test: rice; settings: scale 0 to 100 (0 no effect, 100 complete control)
Outline: (§2)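 2-leaf stage plants; pots flooded 3 cm above soil; compound applied into paddy water, depth maintained. Greenhouse 13–15 d. Visual rating vs controls, 0–100 (0 = no effect, 100 = complete control); dash = no result.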

[8] = test system: sedge, umbrella (small-flower umbrella sedge, Cyperus difformis); experiment: Test C flooded paddy test: sedge, umbrella; settings: scale 0 to 100 (0 no effect, 100 complete control)
Outline: as §2

[9] = test system: ducksalad (Heteranthera limosa); experiment: Test C flooded paddy test: ducksalad; settings: scale 0 to 100 (0 no effect, 100 complete control)
Outline: as §2

[10] = test system: barnyardgrass (Echinochloa crus-galli); experiment: Test C flooded paddy test: barnyardgrass; settings: scale 0 to 100 (0 no effect, 100 complete control)
Outline: as §2

[11] = 125 g ai/ha, 0 to 100 scale, 0 is no effect, 100 is complete control
[12] = 500 g ai/ha, visual rating on 0 to 100 scale (0 no effect, 100 complete control), approximately ten days
[13] = 125 g ai/ha, 0 to 100 scale (0 no effect, 100 complete control)
[14] = 500 g ai/ha, 0 to 100 scale, 0 is no effect, 100 is complete control
[15] = Flood (flooded paddy test), 62 g ai/ha, visual rating after 13 to 15 days
[16] = Flood (flooded paddy test), 125 g ai/ha, visual rating after 13 to 15 days
[17] = Flood (flooded paddy test), 250 g ai/ha, visual rating after 13 to 15 days

COc1nn(-c2ccc(C(F)(F)F)cc2)nc1Cn1nc(C(F)(F)F)cc1C(F)(F)F [Compound 30]
Barnyardgrass plant response rating [1, 11]: 0
Barnyardgrass plant response rating [1, 12]: 0
Plant response rating, Barnyardgrass [1, 13]: 0
Plant response rating, Barnyardgrass [1, 14]: 0
Crabgrass, Large plant response rating [2, 11]: 0
Crabgrass, Large plant response rating [2, 12]: 0
Plant response rating, Crabgrass, Large [2, 13]: 0
Plant response rating, Crabgrass, Large [2, 14]: 0
Foxtail, Giant plant response rating [3, 11]: 0
Foxtail, Giant plant response rating [3, 12]: 0
Plant response rating, Foxtail, Giant [3, 13]: 0
Plant response rating, Foxtail, Giant [3, 14]: 0
Morningglory plant response rating [4, 11]: 0
Morningglory plant response rating [4, 12]: 0
Plant response rating, Morningglory [4, 13]: 0
Plant response rating, Morningglory [4, 14]: 0
Pigweed plant response rating [5, 11]: 0
Pigweed plant response rating [5, 12]: 0
Plant response rating, Pigweed [5, 13]: 0
Plant response rating, Pigweed [5, 14]: 0
Velvetleaf plant response rating [6, 11]: 0
Velvetleaf plant response rating [6, 12]: 0
Plant response rating, Velvetleaf [6, 13]: 0
Plant response rating, Velvetleaf [6, 14]: 0
Wheat plant response rating [7, 11]: 0
Wheat plant response rating [7, 12]: 0
Plant response rating, Wheat [7, 13]: 0
Plant response rating, Wheat [7, 14]: 0
Corn plant response rating (corn (Zea mays); [11]): 0
Corn plant response rating (corn (Zea mays); [12]): 0
Plant response rating, Corn (corn (Zea mays); [13]): 0
Plant response rating, Corn (corn (Zea mays); [14]): 0
Plant response rating, Rice (rice (Oryza sativa); [15]): 0
Plant response rating, Rice (rice (Oryza sativa); [16]): 0
Plant response rating, Rice (rice (Oryza sativa); [17]): 0
Plant response rating, Rice (rice (Oryza sativa); Flood, 31 g ai/ha): 0
Plant response rating, Sedge, Umbrella [8, 15]: 0
Plant response rating, Sedge, Umbrella [8, 16]: 20
Plant response rating, Sedge, Umbrella [8, 17]: 30
Plant response rating, Sedge, Umbrella ([8]; Flood, 31 g ai/ha): 0
Plant response rating, Ducksalad [9, 15]: 0
Plant response rating, Ducksalad [9, 16]: 0
Plant response rating, Ducksalad [9, 17]: 0
Plant response rating, Ducksalad ([9]; Flood, 31 g ai/ha): 0
Plant response rating, Barnyardgrass [10, 15]: 0
Plant response rating, Barnyardgrass [10, 16]: 0
Plant response rating, Barnyardgrass [10, 17]: 0
Plant response rating, Barnyardgrass ([10]; Flood, 31 g ai/ha): 0

COc1cc(Cc2nn(-c3ccc(C(F)(F)F)cc3)nc2C)ccn1 [Compound 31]
Barnyardgrass plant response rating [1, 11]: 10
Barnyardgrass plant response rating [1, 12]: 10
Plant response rating, Barnyardgrass [1, 13]: 0
Plant response rating, Barnyardgrass [1, 14]: 0
Crabgrass, Large plant response rating [2, 11]: 10
Crabgrass, Large plant response rating [2, 12]: 50
Plant response rating, Crabgrass, Large [2, 13]: 0
Plant response rating, Crabgrass, Large [2, 14]: 60
Foxtail, Giant plant response rating [3, 11]: 10
Foxtail, Giant plant response rating [3, 12]: 50
Plant response rating, Foxtail, Giant [3, 13]: 30
Plant response rating, Foxtail, Giant [3, 14]: 90
Morningglory plant response rating [4, 11]: 20
Morningglory plant response rating [4, 12]: 100
Plant response rating, Morningglory [4, 13]: 0
Plant response rating, Morningglory [4, 14]: 0
Pigweed plant response rating [5, 11]: 60
Pigweed plant response rating [5, 12]: 90
Plant response rating, Pigweed [5, 13]: 0
Plant response rating, Pigweed [5, 14]: 50
Velvetleaf plant response rating [6, 11]: 10
Velvetleaf plant response rating [6, 12]: 20
Plant response rating, Velvetleaf [6, 13]: 0
Plant response rating, Velvetleaf [6, 14]: 0
Wheat plant response rating [7, 11]: 0
Wheat plant response rating [7, 12]: 10
Plant response rating, Wheat [7, 13]: 0
Plant response rating, Wheat [7, 14]: 0
Corn plant response rating (corn (Zea mays); [11]): 10
Corn plant response rating (corn (Zea mays); [12]): 20
Plant response rating, Corn (corn (Zea mays); [13]): 0
Plant response rating, Corn (corn (Zea mays); [14]): 0
Plant response rating, Rice (rice (Oryza sativa); [15]): 0
Plant response rating, Rice (rice (Oryza sativa); [16]): 0
Plant response rating, Rice (rice (Oryza sativa); [17]): 0
Plant response rating, Rice (rice (Oryza sativa); Flood, 31 g ai/ha): 0
Plant response rating, Sedge, Umbrella [8, 15]: 0
Plant response rating, Sedge, Umbrella [8, 16]: 0
Plant response rating, Sedge, Umbrella [8, 17]: 0
Plant response rating, Sedge, Umbrella ([8]; Flood, 31 g ai/ha): 0
Plant response rating, Ducksalad [9, 15]: 0
Plant response rating, Ducksalad [9, 16]: 0
Plant response rating, Ducksalad [9, 17]: 0
Plant response rating, Ducksalad ([9]; Flood, 31 g ai/ha): 0
Plant response rating, Barnyardgrass [10, 15]: 0
Plant response rating, Barnyardgrass [10, 16]: 0
Plant response rating, Barnyardgrass [10, 17]: 0
Plant response rating, Barnyardgrass ([10]; Flood, 31 g ai/ha): 0

Cc1nn(-c2ccc(C(F)(F)F)cc2)nc1Cn1cc(C(F)(F)F)cn1 [Compound 32]
Barnyardgrass plant response rating [1, 11]: 10
Barnyardgrass plant response rating [1, 12]: 10
Plant response rating, Barnyardgrass [1, 13]: 0
Plant response rating, Barnyardgrass [1, 14]: 0
Crabgrass, Large plant response rating [2, 11]: 20
Crabgrass, Large plant response rating [2, 12]: 30
Plant response rating, Crabgrass, Large [2, 13]: 10
Plant response rating, Crabgrass, Large [2, 14]: 30
Foxtail, Giant plant response rating [3, 11]: 10
Foxtail, Giant plant response rating [3, 12]: 20
Plant response rating, Foxtail, Giant [3, 13]: 10
Plant response rating, Foxtail, Giant [3, 14]: 80
Morningglory plant response rating [4, 11]: 10
Morningglory plant response rating [4, 12]: 50
Plant response rating, Morningglory [4, 13]: 0
Plant response rating, Morningglory [4, 14]: 0
Pigweed plant response rating [5, 11]: 60
Pigweed plant response rating [5, 12]: 100
Plant response rating, Pigweed [5, 13]: 0
Plant response rating, Pigweed [5, 14]: 70
Velvetleaf plant response rating [6, 11]: 20
Velvetleaf plant response rating [6, 12]: 20
Plant response rating, Velvetleaf [6, 13]: 0
Plant response rating, Velvetleaf [6, 14]: 0
Wheat plant response rating [7, 11]: 0
Wheat plant response rating [7, 12]: 0
Plant response rating, Wheat [7, 13]: 0
Plant response rating, Wheat [7, 14]: 0
Corn plant response rating (corn (Zea mays); [11]): 0
Corn plant response rating (corn (Zea mays); [12]): 10
Plant response rating, Corn (corn (Zea mays); [13]): 0
Plant response rating, Corn (corn (Zea mays); [14]): 0
Plant response rating, Rice (rice (Oryza sativa); [15]): 0
Plant response rating, Rice (rice (Oryza sativa); [16]): 0
Plant response rating, Rice (rice (Oryza sativa); [17]): 0
Plant response rating, Rice (rice (Oryza sativa); Flood, 31 g ai/ha): 0
Plant response rating, Sedge, Umbrella [8, 15]: 0
Plant response rating, Sedge, Umbrella [8, 16]: 0
Plant response rating, Sedge, Umbrella [8, 17]: 0
Plant response rating, Sedge, Umbrella ([8]; Flood, 31 g ai/ha): 0
Plant response rating, Ducksalad [9, 15]: 0
Plant response rating, Ducksalad [9, 16]: 0
Plant response rating, Ducksalad [9, 17]: 0
Plant response rating, Ducksalad ([9]; Flood, 31 g ai/ha): 0
Plant response rating, Barnyardgrass [10, 15]: 0
Plant response rating, Barnyardgrass [10, 16]: 0
Plant response rating, Barnyardgrass [10, 17]: 0
Plant response rating, Barnyardgrass ([10]; Flood, 31 g ai/ha): 0
